# Measurements from patent US20240139026A1, “Ophthalmic Lenses And Methods For Correcting, Slowing, Reducing, And/Or Controlling The Progression Of Myopia In Conjunction With Use Of Atropine Or Related Compounds” (Brien Holden Vision Institute Limited, priority 2020, published 2024).
# Tests used:
# [1] = tested on: myopic eye of an individual; experiment: Spherical aberration of combined spectacle lens and eye system with Atropine-enlarged pupil; format: in vivo; conditions: -2.00 D myope; pupillary diameter increase from about 3 mm to about 6 mm with use of Atropine
# Excerpt: FIG. 1A illustrates a schematic plot of pupil diameters resulting from use of Atropine, a widely used muscarinic receptor antagonist and a pharmaceutical agent for myopia therapy. […] Considering FIG. 1A, it is observed that use of 0.01% Atropine which to date is the lowest concentration used for treatment of myopia in individuals, increases the photopic pupillary diameter by approximately 1 mm. Increasing the concentration to anywhere from 0.025% to 0.1% Atropine, increases the photopic pupil size from about 2 mm to about 3 mm. With the highest concentration of 0.5% Atropine, the increase in photopic pupil size was largest and at about 3 mm. An increase in pupil size increases aberrations of the eye. […] FIG. 1B illustrates the increase in higher order aberrations from 3rd to 6th order as determined by aberrometry for the myopic eye of an individual who has a distance refractive error of approximately −2.00 D. It is observed that there is a significant increase in aberrations with a larger pupil. An increase in the pupil size may result in a functional decrement in visual performance and one or more unwanted effects such as poorer visual performance, reduced contrast, blurred vision, increased glare and increased photophobia (sensitivity to light). […]
# [2] = tested on: amplitude of accommodation; conditions: concentrations greater than 0.1% Atropine; children aged 6-12 years; cited from earlier work
# myopia progression = conditions: cited from earlier work
compound,measurement,setting,value
CN1[C@@H]2CC[C@H]1C[C@@H](OC(=O)C(CO)c1ccccc1)C2 (stereo partly shown) [Atropine],effective increase of the spherical aberration of the combined spectacle lens and eye system,[1],about +0.50 D
same,reduction of amplitude of accommodation,[2],reduce the amplitude of accommodation by more than half
same,concentration dependence of efficacy,myopia progression; Atropine eye drops 0.01% to 1.0%,"the higher the concentration, the greater the efficacy"
same,efficacy in slowing myopia progression,myopia progression; used topically,demonstrated a level of efficacy in slowing myopia progression
